Earlier results on one substance are cited in article PMC9377340 (Chemical biology & drug design, 2022).

For the series, the target named is human FXIa (Homo sapiens, UniProt P03951). To be noted: ref Kar et al., 2020.

Several values for one entry are separate records, joined by “and”; a condition that tells them apart may be missing. Equal entries are not always repeated.

human FXIa, sequence (P03951 388-625 limits assumed): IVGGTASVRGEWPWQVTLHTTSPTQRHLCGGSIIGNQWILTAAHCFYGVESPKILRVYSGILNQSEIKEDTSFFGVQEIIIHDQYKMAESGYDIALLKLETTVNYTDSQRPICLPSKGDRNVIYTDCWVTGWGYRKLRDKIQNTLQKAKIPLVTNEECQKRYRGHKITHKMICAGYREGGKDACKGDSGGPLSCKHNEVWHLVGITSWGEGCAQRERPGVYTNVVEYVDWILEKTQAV
human FXIa, sequence (P03951 19-387 limits assumed): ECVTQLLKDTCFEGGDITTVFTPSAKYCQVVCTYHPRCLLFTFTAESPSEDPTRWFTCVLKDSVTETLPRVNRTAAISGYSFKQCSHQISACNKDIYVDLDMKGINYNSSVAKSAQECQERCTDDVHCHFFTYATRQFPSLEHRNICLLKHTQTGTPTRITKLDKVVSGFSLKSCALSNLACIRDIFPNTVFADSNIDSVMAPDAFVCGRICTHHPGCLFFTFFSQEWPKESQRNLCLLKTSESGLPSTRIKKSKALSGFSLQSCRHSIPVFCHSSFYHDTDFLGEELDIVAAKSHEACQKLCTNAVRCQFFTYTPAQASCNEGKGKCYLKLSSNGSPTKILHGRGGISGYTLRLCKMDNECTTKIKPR

As for benzyl tetraphosphonate [BTP], the “HS (Hill slope), FXIa inhibition” value is reported as 1.9 ± 0.5 and the “ΔY (efficacy), FXIa inhibition” value was 68.0 ± 3.7%. Besides, where the note is “read-out: IC50, FXIa inhibition”, the IC50 (in general, the point on the concentration scale where inhibition reaches its midpoint) was ~7.4 µM and 7.4 µM.
